Consider 30 compounds from PubChem BioAssay (NCI).

Values joined by “and” are separate entries in the source; they are usually repeats but may differ in a detail not shown here. Equal values may be shown once.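 Compound exposure: 48 hours, 5 concentrations, 96-well plates. The concentration for 50% growth inhibition is given as GI50. TGI denotes the concentration required for complete inhibition of growth.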

Test systems include HT29 colon; U251 CNS; OVCAR-3 ovarian; HOP-62 NSCLC; HCT-15 colon; HL-60(TB) leukemia.
What all share (assay): growth of human tumour cells (NCI), 48 h

Consider `CN1CC(=O)N2Cc3ccccc3-n3cccc3C2C1` (stereo unspecified), for which the TGI with HT29 colon, in the assay with U251 CNS, in the assay with OVCAR-3 ovarian, in the assay with HOP-62 NSCLC and with HCT-15 colon was over 100 µM throughout.
For `CC12C/C(=C\c3ccccc3)C(=O)C3C1CCCC32`, the TGI in the assay with HT29 colon was over 100 µM; in the assay on U251 CNS, over 100 µM; in the assay with OVCAR-3 ovarian it was over 100 µM; in the assay on HOP-62 NSCLC, over 100 µM; in the assay on HL-60(TB) leukemia it was 55.6 µM; with HCT-15 colon, over 100 µM.
Turning to `CCCCCCCCCCCCCC(=O)OCC(C[As](=O)(O)O)OC(=O)CCCCCCCCCCCCC` (stereo unspecified), the TGI in the assay on HT29 colon, in the assay with U251 CNS, in the assay on OVCAR-3 ovarian, in the assay on HOP-62 NSCLC and in the assay with HCT-15 colon was over 100 µM each time.
In the case of `O=c1/c(=C/c2ccccc2[N+](=O)[O-])sc2nnc(-c3ccco3)n12`, the TGI was over 100 µM in the assay with HT29 colon; 36.6 µM with U251 CNS; 32.4 µM in the assay on OVCAR-3 ovarian; 39.2 µM in the assay on HOP-62 NSCLC; 58.4 µM with HL-60(TB) leukemia; 75.8 µM in the assay on HCT-15 colon.
`O=C1c2ccccc2C(=O)N1CCn1ccc(NC(c2ccccc2)(c2ccccc2)c2ccccc2)nc1=O`: the TGI with HT29 colon was 30.5 µM; in the assay on U251 CNS, 32.3 µM; in the assay with OVCAR-3 ovarian, 65.8 µM; with HOP-62 NSCLC, 33 µM; with HL-60(TB) leukemia, 44.2 µM; in the assay with HCT-15 colon, 62.6 µM.
On to `CC(C)(C)NNC(=O)CCn1[nH]c(=O)c(Cl)c(Cl)c1=O`, for which the TGI in the assay with HT29 colon, with U251 CNS, in the assay with OVCAR-3 ovarian, in the assay with HOP-62 NSCLC, in the assay on HL-60(TB) leukemia and with HCT-15 colon was over 100 µM in each case.
For `CC(C)C(CCl)NC(=O)c1cccc(C(=O)N[C@H](CCl)C(C)C)n1` (stereo in doubt), the TGI with HT29 colon, with U251 CNS, with OVCAR-3 ovarian, in the assay with HOP-62 NSCLC, in the assay with HL-60(TB) leukemia and with HCT-15 colon was over 100 µM in each case.
Consider `Cc1cn2c(=O)c3ncn(C4OC(CO)C(O)C4O)c3n(C)c2n1` (stereo unspecified), for which the TGI in the assay with HT29 colon, in the assay with U251 CNS, in the assay on OVCAR-3 ovarian, in the assay with HL-60(TB) leukemia and in the assay with HCT-15 colon was over 100 µM throughout.
In the case of `CCC12CCCN(Cc3ccccc3)C1c1c(n(C)c3ccccc13)CC2` (stereo unspecified), the TGI in the assay on HT29 colon was over 253 µM; in the assay on U251 CNS, over 253 µM; with OVCAR-3 ovarian, 215 µM; with HOP-62 NSCLC, over 253 µM; in the assay on HL-60(TB) leukemia, over 253 µM; in the assay with HCT-15 colon, over 253 µM.
As to `Nc1nc(Cl)cc(NCCCCCCCCNc2cc(Cl)nc(N)n2)n1`, the TGI in the assay with HT29 colon was over 100 µM; with U251 CNS, over 100 µM; with OVCAR-3 ovarian, over 100 µM; with HOP-62 NSCLC, over 100 µM; in the assay on HL-60(TB) leukemia, 48.5 µM; with HCT-15 colon it was over 100 µM.
Regarding `Cc1c2n(c(=O)[nH]c1=O)C1OC(CO)C(O2)C1O` (stereo unspecified), the TGI with HT29 colon, with U251 CNS, in the assay with OVCAR-3 ovarian, with HOP-62 NSCLC, in the assay on HL-60(TB) leukemia and in the assay with HCT-15 colon was over 100 µM throughout.
Take `O=C1CCC(Cl)=CC2CCCN12` (stereo unspecified): the TGI with HT29 colon, in the assay on U251 CNS, with HOP-62 NSCLC, with HL-60(TB) leukemia and in the assay with HCT-15 colon was over 100 µM each time.
In the case of `CC(=O)CCn1ncc(Cl)c(Cl)c1=O`, the TGI turned out to be 34.1 µM with HT29 colon; 27.5 µM with OVCAR-3 ovarian; 35.4 µM with HOP-62 NSCLC; 63.2 µM with HL-60(TB) leukemia; 20.5 µM in the assay with HCT-15 colon.
In the case of `N.N.N.N.O=C([O-])CCl.O=C([O-])CCl.[Co+3].[O-][Cl+3]([O-])([O-])[O-]`, the GI50 with HT29 colon, with U251 CNS, with OVCAR-3 ovarian, with HOP-62 NSCLC, in the assay with HL-60(TB) leukemia and in the assay with HCT-15 colon was over 100 µM in each case. Moreover, the TGI in the assay with HT29 colon, in the assay with U251 CNS, in the assay with OVCAR-3 ovarian, with HOP-62 NSCLC, with HL-60(TB) leukemia and in the assay on HCT-15 colon was over 100 µM each time.
For the compound `CCN(CC)CCCN1CCc2c([nH]c3ccccc23)C1c1cccnc1` (stereo unspecified), the TGI with HT29 colon, with U251 CNS, in the assay on OVCAR-3 ovarian, in the assay on HOP-62 NSCLC, with HL-60(TB) leukemia and in the assay on HCT-15 colon was over 100 µM each time.
`O=C(Nc1ccn(CCO)c(=O)n1)c1ccccc1`: the TGI in the assay on HT29 colon, with U251 CNS, with OVCAR-3 ovarian, in the assay on HOP-62 NSCLC, in the assay with HL-60(TB) leukemia and with HCT-15 colon was over 100 µM in each case.
`O=C(CCN(C(=O)O)S(=O)(=O)c1ccc(NC(=O)c2ccccc2)cc1)Nc1ccccc1`: the TGI in the assay with HT29 colon is over 100 µM; in the assay with U251 CNS, over 100 µM; with OVCAR-3 ovarian, over 100 µM; in the assay on HOP-62 NSCLC, over 100 µM; in the assay with HL-60(TB) leukemia, over 75.2 µM; in the assay on HCT-15 colon, over 75.2 µM.
Consider `O=C1CCC2(c3ccc(Cl)cc3)Nc3ncccc3N12` (stereo unspecified), for which the TGI with HT29 colon, with U251 CNS, in the assay on OVCAR-3 ovarian, in the assay with HOP-62 NSCLC, in the assay on HL-60(TB) leukemia and with HCT-15 colon was over 100 µM each time.
Turning to `COc1ccc2occ(CCC(=O)O)c2c1`, the TGI with HT29 colon, in the assay with U251 CNS, in the assay on OVCAR-3 ovarian, in the assay on HOP-62 NSCLC, with HL-60(TB) leukemia and in the assay on HCT-15 colon was over 100 µM throughout.
For the compound `COC(=O)C(C(=O)c1ccccc1)C(C(=O)C(=O)Nc1ccc(OC)cc1OC)C(=O)C(=O)c1ccc(C)cc1` (stereo unspecified), the TGI in the assay on HT29 colon, with U251 CNS, in the assay with OVCAR-3 ovarian, with HOP-62 NSCLC, with HL-60(TB) leukemia and in the assay on HCT-15 colon was over 100 µM each time.
Consider `CCC(=O)CC(=O)CCC(=O)Nc1cc(C)ccc1C`, for which the TGI with HT29 colon, with U251 CNS, in the assay with OVCAR-3 ovarian, in the assay with HL-60(TB) leukemia and in the assay on HCT-15 colon was over 100 µM throughout.
As to `[N-]=[N+]=NC1(Cc2ccccc2)C(=O)c2cccc3c2N(CCC3)C1=O` (stereo unspecified), the TGI in the assay with HT29 colon, in the assay with U251 CNS, in the assay on HOP-62 NSCLC, in the assay on HL-60(TB) leukemia and with HCT-15 colon was over 100 µM in each case.
With `OC(CC1SCCCS1)c1ccccc1` (stereo unspecified), the TGI in the assay with HT29 colon, with U251 CNS, in the assay with OVCAR-3 ovarian, in the assay on HOP-62 NSCLC, in the assay with HL-60(TB) leukemia and in the assay with HCT-15 colon was over 100 µM each time.
Take `CCOC(=O)c1cnc2c(ccc3[nH]n(C)nc32)c1=O`: the TGI with HT29 colon is over 100 µM; with U251 CNS, 68.9 µM; in the assay with OVCAR-3 ovarian, over 100 µM; with HOP-62 NSCLC, over 100 µM; with HL-60(TB) leukemia it was over 100 µM; in the assay with HCT-15 colon, over 100 µM.
Consider `Clc1ccc2c(c1)[nH]c1c2nc2ccccn21`, for which the TGI in the assay with HT29 colon is 45.4 µM and 28.9 µM; with U251 CNS, > 100 µM and 24.5 µM; with HOP-62 NSCLC, > 100 µM and 55.6 µM; in the assay on HCT-15 colon it was > 100 µM and 38.5 µM. Further, the GI50 was > 100 µM and 11.9 µM with U251 CNS; 78 µM and 24.6 µM with HOP-62 NSCLC; 40.8 µM and 20 µM in the assay on HCT-15 colon.
With `CCCCOC(=O)CNC(=O)OC/C=C/C#CC#C/C=C/COC(=O)NCC(=O)OCCCC`, the GI50 with HT29 colon, in the assay with U251 CNS, in the assay on OVCAR-3 ovarian, with HOP-62 NSCLC and with HL-60(TB) leukemia was over 100 µM in each case. For the same compound, the TGI in the assay on HT29 colon is over 100 µM; with U251 CNS, over 100 µM; in the assay with OVCAR-3 ovarian, over 100 µM; in the assay with HOP-62 NSCLC it was over 100 µM; in the assay with HL-60(TB) leukemia, over 100 µM; in the assay on HCT-15 colon, over 10 µM.
Turning to `Cc1ccc(S(=O)(=O)N(C=O)N=C2CCN(Cc3ccccc3)CC2)cc1`, the TGI in the assay on HT29 colon, in the assay on U251 CNS, in the assay on OVCAR-3 ovarian, in the assay with HOP-62 NSCLC, in the assay on HL-60(TB) leukemia and in the assay with HCT-15 colon was over 100 µM in each case.
For `CC(C)CCC1CC2C(=O)N(c3ccccc3)C(=O)C2c2[nH]c3ccccc3c21` (stereo unspecified), the TGI worked out at 11 µM with HT29 colon; 3.5 µM in the assay with U251 CNS; 7.63 µM with OVCAR-3 ovarian; 5.73 µM in the assay on HL-60(TB) leukemia; 13.4 µM in the assay with HCT-15 colon.
As to `CC(C)N(C(=O)C12C3C4C1C1C4(C#N)C3C12C#N)C(C)C` (stereo unspecified), the TGI in the assay on HT29 colon, in the assay with U251 CNS, in the assay on OVCAR-3 ovarian, with HOP-62 NSCLC and with HCT-15 colon was over 100 µM throughout.
Consider `O=[N+]([O-])c1cccc(C2=NN(c3ccccc3)C[N+](c3ccc(Br)cc3)=N2)c1`, for which the TGI with HT29 colon, in the assay with U251 CNS, with HOP-62 NSCLC and with HCT-15 colon was over 100 µM each time.
